# Results published in patent publication US20190060239A1, “Technology for the Preparation of Microparticles” (Ansun Biopharma, Inc., priority 2007, published 2019).
# What was measured:
# [1] = Microsphere quality score by light microscopy (scoring system of Table 13); assay type: physicochemical; conditions: for Microsphere Quality: compound 2 mg/ml
# Procedure: For each of the compounds listed in A-D above, and for DAS181, cocktail solutions containing 2 mg/ml of compound dissolved in an aqueous solvent and various counterions, antisolvents and pH, as listed below, were prepared in a 96-well microtiter plate (0.1 ml cocktail/well) at room temperature. Control solutions contained either solvent or antisolvent alone, with or without the counterion. Cocktails were cooled by placing in a freezer. The chilled plates were transferred onto pre-chilled (−45° C.) shelves of a Millrock Lab Series Lyophilizer, and the vacuum was applied. The frozen cocktail solutions were allowed to lyophilize for 16 hours.
# The lyophilized powders from the bottoms of the wells were transferred onto glass slides and analyzed by light microscopy for appearance. The quality of the product microspheres was scored based on the uniformity of the microspheres, the absence of undesirable non-microsphere particles (glass-like crystalline forms), and the absence of aggregates.
# Arginine was used as counterion and isopropanol was used as antisolvent. Concentrations of each of the cocktail components—the compound, the counterion and the antisolvent—were varied as shown below in Table 15, and the effect on microsphere quality assessed.
# Experiments were performed to evaluate the effect of antisolvent and counterion concentration variation on the formation of microspheres. The peptides leuprolide and somatostatin, and the antibiotics vancomycin and tobramycin, were tested under a variety of conditions for forming microspheres. Samples were analyzed in 96-well plates as described in the previous Examples.
# The experiments were performed using PGI2 and an analog of PGI2, Ciprostene, at a concentration of 2 mg/ml. Cocktail solutions were mixed at room temperature, then cooled by placing in a freezer. The chilled plates were transferred onto pre-chilled (−45° C.) shelves of a Millrock Lab Series Lyophilizer, and the vacuum was applied. The frozen cocktail solutions were allowed to lyophilize for 16 hours.
# Because the resulting prostaglandin microspheres are hygroscopic, upon microsphere initiation, the humidity was maintained at low levels during the experiments, using a nitrogen gas tank attached to the backfill system on the lyophilizer. Each of the reaction tubes was flushed with N2. In addition, the backfill valve on the lyophilizer was left open to continually flush a low humidity atmosphere over the samples. The microscope used to visualize the resulting microspheres was contained within a plastic bag that was continually purged with dry N2. Sample tubes were placed under the bag to equilibrate for approximately 30 seconds, before opening and spreading onto the glass slide.
# The compound/counterion/antisolvent conditions were as follows:
# Experiments were performed with 200 μl of each of the above cocktail solutions in a 2 ml lyophilization bottle (first flash freeze condition), and 25 μl of each of the above cocktail solutions in a PCR tube (second flash freeze condition). The samples in the lyophilization bottles took approximately 15 seconds to freeze. The samples in the PCR tubes took approximately 3 seconds or less to freeze.
# The cocktails in the 96-well plates were cooled by placing in a freezer. The chilled plates were transferred onto pre-chilled (−45° C.) shelves of a Millrock Lab Series Lyophilizer, and a vacuum was applied. The frozen cocktail solutions were allowed to lyophilize for 16 hours.
# The lyophilized powders from the bottoms of the wells were transferred onto glass slides and analyzed by light microscopy for appearance.
# [2] = cited from earlier work
# [3] = Microsphere formation, size and appearance by light microscopy; assay type: physicochemical; conditions: 2 mg/ml paclitaxel; isopropanol, t-butanol or DMSO with 2 mM Na-citrate buffer pH 5.0
# [4] = Bombuwala et. al., Beilstein J. Org. Chem. 2006, 2:13; cited from earlier work
"Microsphere Quality ([1]; 2 mM Arginine, pH 9, 20% n-propanol, 0% t-butanol)","Microsphere Quality ([1]; 2 mM Arginine, pH 9, 20% n-propanol, 30% t-butanol)","Microsphere Quality ([1]; 2 mM PEI, pH 10.75, 30% n-propanol, 0% t-butanol)","Microsphere Quality ([1]; 2 mM TEA, pH 11, 20% n-propanol, 0% t-butanol)","Microsphere Quality ([1]; 2 mM TEA, pH 11, 20% n-propanol, 5% t-butanol)","Microsphere Quality ([1]; 2 mM TEA, pH 11, 20% n-propanol, 55% t-butanol)","Microsphere Quality ([1]; 2 mM TEA, pH 11, 20% n-propanol, 70% t-butanol)","Microsphere Quality ([1]; 2 mM TEA, pH 11, 30% n-propanol, 0% t-butanol)",SMILES,solubility in water / aqueous solutions [2],organic solvent concentration at which paclitaxel precipitated [3] [%],"appearance after flash freeze ([1]; both flash freeze conditions, Paclitaxel/citrate pH 5.0/90% t-butanol)",log P (log of the octanol/water partition coefficient) [4],API half life ([2]; at physiological pH)
7/8,6/7,6/7,4/5,8/7,6/7,5/6,3/4,CCCCC[C@H](O)/C=C/[C@H]1[C@H](O)C[C@]2(C)C/C(=C\CCCC(=O)O)C[C@H]12 [Ciprostene],not highly soluble in aqueous solutions,–,–,–,–
–,–,–,–,–,–,–,–,CC(=O)O[C@H]1C(=O)[C@@]2(C)[C@H]([C@H](OC(=O)c3ccccc3)[C@]3(O)C[C@H](OC(=O)[C@H](O)[C@@H](NC(=O)c4ccccc4)c4ccccc4)C(C)=C1C3(C)C)[C@]1(OC(C)=O)CO[C@@H]1C[C@@H]2O [Paclitaxel],–,≤ 25,mostly crystalline,higher than 3,–
–,–,–,–,–,–,–,–,CCCCC[C@H](O)/C=C/[C@@H]1[C@H]2C/C(=C/CCCC(=O)O)O[C@H]2C[C@H]1O [PGI2],higher solubility in water,–,–,–,on the order of minutes
